Assay results taken from patent US5840684A, “Glycopeptide antibiotic derivatives” (Eli Lilly and Company, priority 1995, dated 1998).
≈ marks a conversion by molar mass, not a printed value.

Assays:
[1] = system: Staphylococcus aureus 491; test: broth micro-dilution MIC; format: cell-based
Procedure: (§1) The MIC's were determined using a standard broth micro-dilution assay.

[2] = system: Entercoccus faecium 276; test: broth micro-dilution MIC; format: cell-based
Procedure: as §1

[3] = system: Entercoccus faecium 180-1; test: broth micro-dilution MIC; format: cell-based
Procedure: as §1

[4] = system: Staphylococcus aureus X400; test: broth micro-dilution MIC; format: cell-based
Procedure: as §1

[5] = system: Staphylococcus aureus 446; test: broth micro-dilution MIC; format: cell-based
Procedure: as §1

[6] = system: Staphylococcus aureus X778; test: broth micro-dilution MIC; format: cell-based
Procedure: as §1

[7] = system: Streptococcus pyogenes C203; test: broth micro-dilution MIC; format: cell-based
Procedure: as §1

[8] = system: Staphylococcus aureus 489; test: broth micro-dilution MIC; format: cell-based
Procedure: as §1

[9] = system: Staphylococcus aureus SA1199A; test: broth micro-dilution MIC; format: cell-based
Procedure: as §1

[10] = system: Staphylococcus aureus SA1199; test: broth micro-dilution MIC; format: cell-based
Procedure: as §1

[11] = system: Staphylococcus aureus 447; test: broth micro-dilution MIC; format: cell-based
Procedure: as §1

[12] = system: vancomycin-resistant enterococci; test: broth micro-dilution, mean geometric MIC; format: cell-based, Enterococcus faecium and Enterococcus faecalis; conditions: enterococci, 24-hour incubation
[13] = system: Staphylococcus aureus S13E; format: cell-based
Procedure: as §1

[14] = system: Staphylococcus aureus SA1199B; format: cell-based
Procedure: as §1

[15] = system: vancomycin-susceptible enterococci; test: broth micro-dilution, mean geometric MIC; format: cell-based, Enterococcus faecium and Enterococcus faecalis; conditions: enterococci, 24-hour incubation
[16] = system: Staphylococcus haemolyticus 415; test: broth micro-dilution MIC; format: cell-based
Procedure: (§2) The formula I compounds have in vitro and in vivo activity against Gram-positive pathogenic bacteria. The MIC's were determined using a standard broth micro-dilution assay.

[17] = system: Staphylococcus epidermidis 270; test: broth micro-dilution MIC; format: cell-based
Procedure: as §2

[18] = system: Haemophilus influenzae RD; test: broth micro-dilution MIC; format: cell-based; conditions: Haemophilus influenzae RD
Procedure: as §2

[19] = system: Streptococcus pneumoniae P1; test: broth micro-dilution MIC; format: cell-based
Procedure: as §2

[20] = system: Entercoccus faecium 2041; test: broth micro-dilution MIC; format: cell-based; conditions: Entercoccus faecium 2041
Procedure: as §2

[21] = system: Entercoccus faecium 180; test: broth micro-dilution MIC; format: cell-based; conditions: Entercoccus faecium 180
Procedure: as §2

[22] = system: Staphylococcus haemolyticus 105; test: broth micro-dilution MIC; format: cell-based
Procedure: as §2

[23] = system: Enterococcus gallinarum 245; test: broth micro-dilution MIC; format: cell-based; conditions: Enterococcus gallinarum 245
Procedure: as §2

| Compound | MIC [1] [µg/mL] | MIC [2] [µg/mL] | MIC [3] [µg/mL] | MIC [4] [µg/mL] | MIC [5] [µg/mL] | MIC [6] [µg/mL] | MIC [7] [µg/mL] | MIC [8] [µg/mL] | MIC [9] [µg/mL] | MIC [10] [µg/mL] | MIC [11] [µg/mL] | mean geometric MIC, Vancomycin Resistant Strains [12] [µg/mL] | MIC [13] [µg/mL] | MIC [14] [µg/mL] | mean geometric MIC, Vancomycin Sensitive Strains [15] [µg/mL] | MIC [16] [µg/mL] | MIC [17] [µg/mL] | MIC [18] [µg/mL] | MIC [19] [µg/mL] | MIC [20] [µg/mL] | other results |
| --- | --- | --- | --- | --- | --- | --- | --- | --- | --- | --- | --- | --- | --- | --- | --- | --- | --- | --- | --- | --- | --- |
| CNC(CC(C)C)C(=O)NC1C(=O)NC(CC(N)=O)C(=O)NC2C(=O)NC3C(=O)NC(C(=O)NC(C(=O)O)c4cc(O)cc(O)c4-c4cc3ccc4O)C(OC3CC(C)(N)C(O)C(C)O3)c3ccc(c(Cl)c3)Oc3cc2cc(c3OC2OC(CO)C(O)C(O)C2OC2CC(C)(NCc3c4c(cc5ccccc35)CCCC4)C(O)C(C)O2)Oc2ccc(cc2Cl)C1O (centres unmarked) [Compound 156] | 1 (≈ 0.56 µM) | 2 (≈ 1.12 µM) | ≤ 0.06 | 2 (≈ 1.12 µM) | 2 (≈ 1.12 µM) | 1 (≈ 0.56 µM) | ≤ 0.06 | 1 (≈ 0.56 µM) | ≤ 0.06 | 1 (≈ 0.56 µM) | 1 (≈ 0.56 µM) | 5.7 | 1 (≈ 0.56 µM) | 0.5 (≈ 0.28 µM) | 0.17 | 2 (≈ 1.12 µM) | 1 (≈ 0.56 µM) | 2 (≈ 1.12 µM) | ≤ 0.06 | 0.5 (≈ 0.28 µM) | MIC [21]: 1 µg/mL (≈ 0.56 µM); MIC [22]: 4 µg/mL (≈ 2.24 µM); MIC [23]: 2 µg/mL (≈ 1.12 µM) |
| CNC(CC(C)C)C(=O)NC1C(=O)NC(CC(N)=O)C(=O)NC2C(=O)NC3C(=O)NC(C(=O)NC(C(=O)O)c4cc(O)cc(O)c4-c4cc3ccc4O)C(OC3CC(C)(N)C(O)C(C)O3)c3ccc(c(Cl)c3)Oc3cc2cc(c3OC2OC(CO)C(O)C(O)C2OC2CC(C)(NCCCCc3ccc(OC)cc3)C(O)C(C)O2)Oc2ccc(cc2Cl)C1O (centres unmarked) [Compound 172] | 0.5 (≈ 0.285 µM) | 0.125 (≈ 0.0712 µM) | ≤ 0.06 | 0.5 (≈ 0.285 µM) | 4 (≈ 2.28 µM) | 2 (≈ 1.14 µM) | ≤ 0.06 | 0.5 (≈ 0.285 µM) | ≤ 0.06 | 1 (≈ 0.57 µM) | 0.5 (≈ 0.285 µM) | 3.4 | ≤ 0.06 | ≤ 0.06 | 0.13 | 2 (≈ 1.14 µM) | 0.5 (≈ 0.285 µM) | 32 (≈ 18.2 µM) | ≤ 0.06 | ≤ 0.06 | MIC [21]: 0.5 µg/mL (≈ 0.285 µM); MIC [22]: 0.25 µg/mL (≈ 0.142 µM); MIC [23]: 2 µg/mL (≈ 1.14 µM) |
| CNC(CC(C)C)C(=O)NC1C(=O)NC(CC(N)=O)C(=O)NC2C(=O)NC3C(=O)NC(C(=O)NC(C(=O)O)c4cc(O)cc(O)c4-c4cc3ccc4O)C(OC3CC(C)(N)C(O)C(C)O3)c3ccc(c(Cl)c3)Oc3cc2cc(c3OC2OC(CO)C(O)C(O)C2OC2CC(C)(NCCCCCCCCOc3ccccc3)C(O)C(C)O2)Oc2ccc(cc2Cl)C1O (centres unmarked) [Compound 195] | 0.5 (≈ 0.278 µM) | 0.25 (≈ 0.139 µM) | ≤ 0.06 | 2 (≈ 1.11 µM) | 0.5 (≈ 0.278 µM) | 0.5 (≈ 0.278 µM) | ≤ 0.06 | 1 (≈ 0.557 µM) | ≤ 0.06 | 0.5 (≈ 0.278 µM) | 1 (≈ 0.557 µM) | 2.0 | 2 (≈ 1.11 µM) | 1 (≈ 0.557 µM) | 0.042 | 4 (≈ 2.23 µM) | 0.25 (≈ 0.139 µM) | 32 (≈ 17.8 µM) | ≤ 0.06 | ≤ 0.06 | MIC [21]: 0.5 µg/mL (≈ 0.278 µM); MIC [22]: 1 µg/mL (≈ 0.557 µM); MIC [23]: 4 µg/mL (≈ 2.23 µM) |
| CNC(CC(C)C)C(=O)NC1C(=O)NC(CC(N)=O)C(=O)NC2C(=O)NC3C(=O)NC(C(=O)NC(C(=O)O)c4cc(O)cc(O)c4-c4cc3ccc4O)C(OC3CC(C)(N)C(O)C(C)O3)c3ccc(c(Cl)c3)Oc3cc2cc(c3OC2OC(CO)C(O)C(O)C2OC2CC(C)(NCCCCCCCCCCc3ccccc3)C(O)C(C)O2)Oc2ccc(cc2Cl)C1O (centres unmarked) [Compound 197] | 1 (≈ 0.553 µM) | 1 (≈ 0.553 µM) | 0.25 (≈ 0.138 µM) | 2 (≈ 1.11 µM) | 1 (≈ 0.553 µM) | 2 (≈ 1.11 µM) | ≤ 0.06 | 2 (≈ 1.11 µM) | 1 (≈ 0.553 µM) | 2 (≈ 1.11 µM) | 2 (≈ 1.11 µM) | 1.2 | 2 (≈ 1.11 µM) | 2 (≈ 1.11 µM) | 0.16 | 4 (≈ 2.21 µM) | 0.5 (≈ 0.276 µM) | 32 (≈ 17.7 µM) | ≤ 0.06 | 0.25 (≈ 0.138 µM) | MIC [21]: 0.5 µg/mL (≈ 0.276 µM); MIC [22]: 1 µg/mL (≈ 0.553 µM); MIC [23]: 4 µg/mL (≈ 2.21 µM) |
